For `Cc1cc(N2CC=C(CC(N)=O)CC2)c2cccc(-c3ccc(Cl)cc3Cl)c2n1` [compound 1-05, 2-{1-[8-(2,4-dichlorophenyl)-2-methylquinolin-4-yl]-1,2,3,6-tetrahydropyridin-4-yl}-acetamide], the melting point was 160 to 162 °C.

— patent US7160900B2, “Tetrahydropyridino or piperidino heterocyclic derivatives” (Taisho Pharmaceutical Co., Ltd., priority 2000, dated 2007)
